Data on three compounds can be found in US20040259819A1, “Novel heterocyclic fluoroglycoside derivatives, medicaments containing these compounds, and the use thereof” (Aventis Pharma Deutschland GmbH, priority 2002, published 2004).

The target of this assay is T1, SGLT (Oryctolagus cuniculus, UniProt P11170).
T1 construct: To prepare brush border membranes from rabbit small intestine, rabbits were sacrificed; from tissue; host or cells: rabbit small intestine mucosa, brush border membrane vesicles (Mg2+ precipitation)
T1 sequence (P11170 1-662): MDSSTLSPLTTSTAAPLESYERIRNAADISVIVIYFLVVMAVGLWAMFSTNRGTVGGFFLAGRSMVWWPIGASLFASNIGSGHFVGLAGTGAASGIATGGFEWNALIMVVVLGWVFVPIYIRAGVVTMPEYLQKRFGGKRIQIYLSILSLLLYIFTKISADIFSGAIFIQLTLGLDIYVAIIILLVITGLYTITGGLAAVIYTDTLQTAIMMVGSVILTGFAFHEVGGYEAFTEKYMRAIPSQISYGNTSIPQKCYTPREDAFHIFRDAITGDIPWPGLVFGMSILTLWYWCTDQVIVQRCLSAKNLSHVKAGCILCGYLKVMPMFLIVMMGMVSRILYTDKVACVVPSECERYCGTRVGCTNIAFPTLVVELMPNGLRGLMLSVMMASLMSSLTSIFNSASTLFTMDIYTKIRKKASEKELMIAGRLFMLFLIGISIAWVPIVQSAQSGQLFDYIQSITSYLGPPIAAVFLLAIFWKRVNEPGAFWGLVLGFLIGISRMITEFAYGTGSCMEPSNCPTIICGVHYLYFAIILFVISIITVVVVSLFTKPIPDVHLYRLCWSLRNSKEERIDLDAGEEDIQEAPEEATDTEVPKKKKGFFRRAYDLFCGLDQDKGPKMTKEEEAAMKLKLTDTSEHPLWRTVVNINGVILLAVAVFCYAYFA
As to the kind of experiment: Glucose uptake transport assay on rabbit small intestine brush border membrane vesicles. In kind it is biochemical. Particulars: uptake of 10 μM [14C]D glucose into rabbit small intestine brush border membrane vesicles, 15 seconds, 30° C., membrane filtration method.
Description: Preparation of brush border membrane vesicles from the small intestine of rabbits, rats and pigs
Preparation of brush border membrane vesicles from the intestinal cells of the small intestine was carried out by the so-called Mg^2+ precipitation method. The mucosa of the small intestine was scraped off and suspended in 60 ml of ice-cold Tris/HCl buffer (pH 7.1)/300 mM mannitol, 5 mM EGTA. Dilution to 300 ml with ice-cold distilled water was followed by homogenization with an Ultraturrax (18 shaft, IKA Werk Staufen, FRG) at 75% of the max. power for 2×1 minute, while cooling in ice. After addition of 3 ml of 1M MgCl2 solution (final concentration 10 mM), the mixture is left to stand at 0° C. for exactly 15 minutes. Addition of Mg^2+ causes the cell membranes to aggregate and precipitate with the exception of the brush border membranes. After centrifugation at 3 000×g (5 000 rpm, SS-34 rotor) for 15 minutes, the precipitate is discarded and the supernatant, which contains the brush border membranes, is centrifuged at 26 700×g (15 000 rpm, SS-34 rotor) for 30 minutes. The supernatant is discarded, and the precipitate is rehomogenized in 60 ml of 12 mM Tris/HCl buffer (pH 7.1)/60 mM mannitol, 5 mM EGTA using a Potter Elvejhem homogenizer (Braun, Melsungen, 900 rpm, 10 strokes). Addition of 0.1 ml of 1M MgCl2 solution and incubation at 0° C. for 15 minutes is followed by centrifugation again at 3 000×g for 15 minutes. The supernatant is then centrifuged again at 46 000×g (20 000 rpm, SS-34 rotor) for 30 minutes. The precipitate is taken up in 30 ml of 20 mM Tris/Hepes buffer (pH 7.4)/280 mM mannitol and homogeneously resuspended by 20 strokes in a Potter Elvejhem homogenizer at 1 000 rpm. After centrifugation at 48 000×g (20 000 rpm, SS-34 rotor) for 30 minutes, the precipitate was taken up in 0.5 to 2 ml of Tris/Hepes buffer (pH 7.4)/280 mM mannitol (final concentration 20 mg/ml) and resuspended using a tuberculin syringe with a 27 gauge needle. […]
The uptake of [^14C]-labeled glucose into brush border membrane vesicles was measured by the membrane filtration method. […]
`COc1ccc(Cc2sccc2OC2OC(CO)C(F)C(O)C2O)cc1` (single isomer, unassigned) [Example 3] showed an IC50 of 300 nM.

As to `COc1ccc(Cc2sccc2OC2OC(CO)C(F)C(O)C2O)cc1` (single isomer, unassigned) [Example 1], 4000 nM corresponded to half-maximal inhibition (IC50).

For `COc1ccc(Cc2sc3ccccc3c2OC2OC(CO)C(F)C(O)C2O)cc1` (stereo not drawn) [Example 2], the half-maximal inhibitory concentration (IC50) turned out to be 400 nM.
